Laboratory results: ChEMBL document CHEMBL1201862, “PubChem BioAssay data set” (2004)
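Exposure lasted 48 hours, with cells grown in 96-well plates and compounds tested at five concentrations. At the GI50, growth is halved.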 The source made the active and inactive calls. Rule as the data show it: active = GI50 up to about 1.1 µM and inactive = higher.

Tests used:
Assay in all cases: growth of human tumour cells (NCI), 48 h
TK-10 = test system: TK-10
HCC 2998 = test system: HCC 2998
HT-29 = test system: HT-29
A549 = test system: A549
NCI-H522 = test system: NCI-H522
NCI/ADR-RES = test system: NCI/ADR-RES
HCT-15 = test system: HCT-15
DU-145 = test system: DU-145
SW-620 = test system: SW-620
NCI-H460 = test system: NCI-H460
MDA-MB-435 = test system: MDA-MB-435
SK-OV-3 = test system: SK-OV-3
CAKI-1 = test system: CAKI-1
NCI-H23 = test system: NCI-H23
T47D = test system: T47D
KM12 = test system: KM12
HOP-62 = test system: HOP-62
SF-539 = test system: SF-539
COLO 205 = test system: COLO 205
SK-MEL-28 = test system: SK-MEL-28
OVCAR-4 = test system: OVCAR-4
K562 = test system: K562
SR = test system: SR
UO-31 = test system: UO-31
SNB-75 = test system: SNB-75
IGROV-1 = test system: IGROV-1
Hs-578T = test system: Hs-578T
SK-MEL-2 = test system: SK-MEL-2
CCRF-CEM = test system: CCRF-CEM
ACHN = test system: ACHN
UACC-62 = test system: UACC-62
U-251 = test system: U-251
MCF7 = test system: MCF7
OVCAR-3 = test system: OVCAR-3
SF-295 = test system: SF-295
M14 = test system: M14
HL-60 = test system: HL-60
SN12C = test system: SN12C
HCT-116 = test system: HCT-116
786-0 = test system: 786-0
MDA-MB-231 = test system: MDA-MB-231
OVCAR-8 = test system: OVCAR-8
SF-268 = test system: SF-268
MDA-N = test system: MDA-N
PC-3 = test system: PC-3
MOLT-4 = test system: MOLT-4
EKVX = test system: EKVX
RXF 393 = test system: RXF 393
UACC-257 = test system: UACC-257
Malme-3M = test system: Malme-3M
SK-MEL-5 = test system: SK-MEL-5
RPMI-8226 = test system: RPMI-8226

Row | SMILES | GI50 (TK-10) | GI50 (HCC 2998) | GI50 (HT-29) | GI50 (A549) | GI50 (HCT-15) | GI50 (DU-145) | GI50 (SW-620) | GI50 (SK-OV-3) | GI50 (CAKI-1) | GI50 (NCI-H23) | GI50 (T47D) | GI50 (KM12) | GI50 (HOP-62) | GI50 (COLO 205) | GI50 (SK-MEL-28) | GI50 (K562) | GI50 (SR) | GI50 (SNB-75) | GI50 (IGROV-1) | GI50 (CCRF-CEM) | further results
1 | CC1(C)N=C(N)N=C(N)N1c1ccc(CCCCCCc2ccc(S(=O)(=O)F)cc2)cc1 | 1.02 µM (active) | 2.23 µM (inactive) | < 0.0468 µM (active) | < 0.0376 µM (active) | 0.857 µM | 0.421 µM (active) | < 0.0211 µM (active) | 8.53 µM (inactive) | 12.3 µM (inactive) | 0.0617 µM (active) | 8 µM (inactive) | 0.276 µM (active) | 1.19 µM (inactive) | 0.144 µM (active) | 3.88 µM (inactive) | < 0.0105 µM (active) | < 0.01 µM (active) | 3.36 µM (inactive) | < 0.0395 µM (active) | < 0.01 µM (active) | GI50 (NCI-H522): 1.55 µM (inactive); GI50 (NCI/ADR-RES): 22.9 µM (inactive); GI50 (NCI-H460): < 0.0229 µM (active); GI50 (MDA-MB-435): 0.0557 µM (active); GI50 (SF-539): < 0.0189 µM (active); GI50 (OVCAR-4): 31.8 µM (inactive); GI50 (UO-31): 14.1 µM (inactive); GI50 (Hs-578T): 2.18 µM (inactive); GI50 (SK-MEL-2): 3.72 µM (inactive); GI50 (ACHN): 0.274 µM (active); GI50 (UACC-62): < 0.01 µM (active); GI50 (U-251): < 0.0352 µM (active); GI50 (MCF7): 0.0828 µM (active); GI50 (OVCAR-3): 0.247 µM (active); GI50 (SF-295): 0.114 µM (active); GI50 (M14): 1.24 µM (inactive); GI50 (HL-60): 0.132 µM (active); GI50 (SN12C): 0.028 µM (active); GI50 (HCT-116): 0.017 µM (active); GI50 (786-0): < 0.01 µM (active)
2 | N#Cc1ccc(/N=C(/NCC(=O)O)Nc2cccc3ccccc23)cc1 | > 10 µM (inactive) | > 10 µM (inactive) | > 10 µM (inactive) | > 10 µM (inactive) | > 10 µM | > 10 µM (inactive) | > 10 µM (inactive) | > 10 µM (inactive) | > 10 µM (inactive) | > 10 µM (inactive) | > 10 µM (inactive) | > 10 µM (inactive) | > 10 µM (inactive) | > 10 µM (inactive) | > 10 µM (inactive) | > 10 µM (inactive) | > 10 µM (inactive) | > 10 µM (inactive) | > 10 µM (inactive) | > 10 µM (inactive) | GI50 (MDA-MB-231): > 10 µM (inactive); GI50 (OVCAR-8): > 10 µM (inactive); GI50 (SF-268): > 10 µM (inactive); GI50 (MDA-N): > 10 µM (inactive); GI50 (PC-3): > 10 µM (inactive); GI50 (MOLT-4): > 10 µM (inactive); GI50 (EKVX): > 10 µM (inactive); GI50 (RXF 393): > 10 µM (inactive); GI50 (UACC-257): > 10 µM (inactive); GI50 (UACC-62): > 10 µM (inactive); GI50 (MCF7): > 10 µM (inactive); GI50 (SF-295): > 10 µM (inactive); GI50 (M14): > 10 µM (inactive); GI50 (HL-60): > 10 µM (inactive); GI50 (SN12C): > 10 µM (inactive); GI50 (Malme-3M): > 10 µM (inactive); GI50 (SK-MEL-5): > 10 µM (inactive); GI50 (RPMI-8226): > 10 µM (inactive); GI50 (786-0): > 10 µM (inactive)
